From the Deep4Chem optical property database

Assay: solvent given as SMILES

Compound: COC(=O)/C=C/C1=CC2=C(c3c(C)cc(C)cc3C)c3cccn3[B-](F)(F)[N+]2=C1
- absorption maximum (in ClCCl): 537 nm

Compound: Cc1ccccc1C
- absorption maximum (in C1CCCCC1): 258.26 nm

Compound: COc1ccc(-c2nc(-c3ccc(-c4nc(-c5ccc(OC)cc5)c(-c5ccc(OC)cc5)[nH]4)s3)[nH]c2-c2ccc(OC)cc2)cc1
- absorption maximum (in CC#N): 365 nm

Compound: CCCCCCc1cc2c3cscc3c3cc(CCCCCC)sc3c2s1
- absorption maximum (in ClC(Cl)Cl): 393 nm

Compound: C(#Cc1nc2ccccc2s1)c1ccc(N(c2ccc(C#Cc3nc4ccccc4s3)cc2)c2ccc(C#Cc3nc4ccccc4s3)cc2)cc1
- absorption maximum (in Cc1ccccc1): 404 nm

Compound: CC(C)(C)NC(=O)c1ccc(-c2ccc(N3c4ccccc4Oc4ccccc43)cc2)c2ccc3c4ccc(F)cc4c4cc(F)ccc4c3c12
- absorption maximum (in ClCCl): 331 nm

Compound: Cc1cc(C)c(B(c2ccc(-c3ccc(-c4nc5c6ccccc6c6ccccc6c5[nH]4)cc3)cc2)c2c(C)cc(C)cc2C)c(C)c1
- absorption maximum (in C1CCOC1): 375 nm
- absorption maximum (in CC(C)=O): 373 nm
- absorption maximum (in CS(C)=O): 378 nm
- absorption maximum (in Cc1ccccc1): 374 nm
- absorption maximum (in ClCCl): 371 nm

Compound: F[B-]1(F)n2c(cc(Br)c2Br)C(c2ccccc2)=C2C=C(Br)C(c3ccc[nH]3)=[N+]21
- absorption maximum (in ClC(Cl)Cl): 626 nm

Compound: O=c1c2ccccc2[nH]c2ccccc12
- absorption maximum (in CS(C)=O): 398 nm
- absorption maximum (in O): 385 nm

Compound: COc1cc2c3c4c(c5ccc(C(C)(C)C)cc5c5c(OC)c(OC)c(OC)c(c2c(OC)c1OC)c45)=[N+]1C3=Nc2c3c4cc(OC)c(OC)c(OC)c4c4c(OC)c(OC)c(OC)c5c6cc(C(C)(C)C)ccc6c(c3c54)n2[B-]1(F)F
- absorption maximum (in Cc1ccccc1): 850 nm

Compound: CN(C)c1ccc(-c2ccc(C#N)s2)s1
- absorption maximum (in CCO): 413 nm

Compound: COCCN1C(=O)/C(=C/c2cccc(N(C)C)c2)N=C1C
- absorption maximum (in C1CCOC1): 353 nm
- absorption maximum (in CC#N): 353 nm
- absorption maximum (in CCCCCC): 352 nm

Compound: CCN(CC)c1ccc2c(-c3ccccc3C(=O)O)c3c([o+]c2c1)/C(=C/Nc1ccccc1)CCC3
- absorption maximum (in CCO): 595 nm
- absorption maximum (in ClC(Cl)Cl): 608 nm
- absorption maximum (in ClCCl): 607 nm

Compound: Cc1ccc(C2=C3C=C(I)C=[N+]3[B-](F)(F)n3cccc32)cc1
- absorption maximum (in C1CCCCC1): 523.5 nm
- absorption maximum (in CC#N): 516.5 nm
- absorption maximum (in CCO): 518 nm
- absorption maximum (in CCOC(C)=O): 517 nm
- absorption maximum (in CO): 516.5 nm
- absorption maximum (in OCC(F)(F)F): 513 nm

Compound: CCC(CC)COC1=CC2=C3c4cc(OCC(CC)CC)c(-c5cccs5)n4[B-](F)(F)[n+]4nnn(c43)[B-](F)(F)[N+]2=C1c1cccs1
- absorption maximum (in C1CCOC1): 784 nm
- absorption maximum (in ClCCl): 795 nm

Compound: F[B-]1(F)Oc2ccccc2-c2nc(-c3ccccc3)c3cc(Cl)ccc3[n+]21
- absorption maximum (in Cc1ccccc1): 395 nm

Compound: COc1ccc2cc([C@H](C)C(=O)O)ccc2c1
- absorption maximum (in CC#N): 332.4 nm
- absorption maximum (in CCCCO): 333.3 nm
- absorption maximum (in CCO): 332.2 nm
- absorption maximum (in CO): 332.4 nm
- absorption maximum (in ClCCl): 333.6 nm
- absorption maximum (in O): 331.2 nm

Compound: CCN(CC)c1cc2oc(=O)cc(C)c2cc1C
- absorption maximum (in CCO): 442 nm

Compound: C[C@@]12SC(Cl)=CC1=c1nc(-c3ccccc3)[nH]c1=C1C=C(Cl)S[C@]12C
- absorption maximum (in CC#N): 322 nm

Compound: COc1ccc(/C=C/C2=[O+][B-](F)(F)OC(/C=C/c3ccc(OC)cc3)=C2c2ccc(OC)cc2)cc1
- absorption maximum (in ClCCl): 506 nm

Compound: CCOC(=O)c1c(-c2cc3ccc(OCC=C(C)C)cc3oc2=O)nn(-c2cccc(Cl)c2)c1C(=O)OCC
- absorption maximum (in ClCCl): 339 nm

Compound: COc1cc(/C=C/c2nc3ccccc3s2)c(OC)cc1/C=C/c1ccncc1
- absorption maximum (in C1CCOC1): 415 nm
- absorption maximum (in CC#N): 410 nm
- absorption maximum (in CN(C)C=O): 416 nm
- absorption maximum (in Cc1ccccc1): 416 nm

Compound: c1ccc2c(c1)-c1ccccc1C21c2ccccc2-c2oc3c(c21)C1(c2ccccc2-c2ccccc21)c1ccccc1-3
- absorption maximum (in C1CCOC1): 367 nm

Compound: CC(C)(C)c1ccc(Oc2cc3c4c(cc(Oc5ccc(C(C)(C)C)cc5)c5c6c(Oc7ccc(C(C)(C)C)cc7)cc7c8c(cc(Oc9ccc(C(C)(C)C)cc9)c(c2c45)c86)C(=O)N(Cc2ccccc2)C7=O)C(=O)N(Cc2ccccc2)C3=O)cc1
- absorption maximum (in ClC(Cl)Cl): 581 nm

Compound: CCCCCCCCCCN1C(=O)c2cc(NCCCOCCO)c3c4c(cc(NCCCOCCO)c(c24)C1=O)C(=O)N(CCCCCCCCCC)C3=O
- absorption maximum (in CO): 604 nm
- absorption maximum (in ClC(Cl)Cl): 609 nm

Compound: c1ccc2c3c(ccc2c1)-c1cccc2cc4ccccc4c-3c12
- absorption maximum (in CCCCCCC): 446 nm

Compound: O=C1NC(c2ccccc2)=N/C1=C\c1ccccc1
- absorption maximum (in C1COCCO1): 384 nm

Compound: Oc1ccc2ccccc2c1/C=N/c1ccccc1/N=C/c1c(O)ccc2ccccc12
- absorption maximum (in CC#N): 429 nm

Compound: CC(C)(C)c1ccc(C#Cc2cc(C#Cc3ccc(C(C)(C)C)cc3)c(C#Cc3ccc(C(C)(C)C)cc3)c(C#Cc3ccc(C(C)(C)C)cc3)c2C#Cc2ccc(C(C)(C)C)cc2)cc1
- absorption maximum (in ClCCl): 373 nm

Compound: O=C(O)CCCCCNC(=O)c1cccc2c(=O)c3ccccc3[nH]c12
- absorption maximum (in O): 409 nm

Compound: FC(F)(F)c1cc2n(n1)[B-]1(c3ccccc3-c3ccccc31)[n+]1ccc3ccccc3c1-2
- absorption maximum (in C1CCCCC1): 373 nm
- absorption maximum (in Cc1ccccc1): 375 nm
- absorption maximum (in ClCCl): 373 nm

Compound: O=C1c2ccccc2C(=O)c2cc(-c3ccc(N(c4ccccc4)c4ccccc4)cc3)ccc21
- absorption maximum (in C1CCOC1): 447 nm
- absorption maximum (in CCCCCC): 442 nm
- absorption maximum (in CCOC(C)=O): 446 nm
- absorption maximum (in CCOCC): 443 nm
- absorption maximum (in Cc1ccccc1): 454 nm
- absorption maximum (in ClC(Cl)(Cl)Cl): 457 nm
- absorption maximum (in ClCCl): 459 nm

Compound: CC1=C(c2cccs2)C(C)=[N+]2C1=C(c1ccc(O)cc1)c1c(C)c(-c3cccs3)c(C)n1[B-]2(F)F
- absorption maximum (in CO): 521 nm
- absorption maximum (in Cc1ccccc1): 530 nm
- absorption maximum (in ClCCl): 528 nm

Compound: COc1c2ccccc2c(OC)c2c1c1c(C)ccc(OC)c1n2C
- absorption maximum (in C1CCCCC1): 417 nm
- absorption maximum (in CC#N): 416 nm
- absorption maximum (in CO): 414 nm
- absorption maximum (in ClCCl): 418 nm

Compound: CCCCN(CCCC)c1ccc(C#Cc2cc(C#Cc3ccc(N(CCCC)CCCC)cc3)c(C#Cc3cc(C(F)(F)F)cc(C(F)(F)F)c3)cc2C#Cc2cc(C(F)(F)F)cc(C(F)(F)F)c2)cc1
- absorption maximum (in ClCCl): 433 nm

Compound: CCN(CC)c1ccc(OC)c(C=O)c1
- absorption maximum (in CC#N): 412 nm
- absorption maximum (in CC(C)O): 418 nm
- absorption maximum (in CCCCCC): 400 nm
- absorption maximum (in CCOC(C)=O): 406 nm
- absorption maximum (in CO): 420 nm
- absorption maximum (in CS(C)=O): 424 nm
- absorption maximum (in Cc1ccccc1): 411 nm
- absorption maximum (in ClCCl): 415 nm

Compound: O=C(O)c1ccc(-c2nc(-c3ccccc3)c3c4ccccc4ccn23)cc1
- absorption maximum (in CC#N): 353 nm

Compound: Cc1ccc2nc3cc4c5c(cccc5c3nc2c1)C(c1ccccc1)=C(c1ccccc1)O4
- absorption maximum (in ClCCl): 491 nm

Compound: CC1(C)C(/C=C/C=C/c2cc3ccc(O)cc3oc2=O)=[N+](CCCS(=O)(=O)[O-])c2ccccc21
- absorption maximum (in CS(C)=O): 491 nm
- absorption maximum (in O): 564 nm

Compound: CC(C)(C(=O)c1ccc(N2c3ccccc3C(C)(C)c3ccccc32)cc1)C(=O)c1ccc(N2c3ccccc3C(C)(C)c3ccccc32)cc1
- absorption maximum (in Cc1ccccc1): 390 nm

Compound: Cc1ccc(/C=C/c2nc(-c3ccc([N+](=O)[O-])cc3)[nH]c2/C=C/c2ccc(C)cc2)cc1
- absorption maximum (in ClCCl): 445 nm

Compound: COc1ccc(-c2csc(/C(C#N)=C/c3ccc(Cl)cc3Cl)n2)cc1
- absorption maximum (in CC#N): 377 nm

Compound: C(#Cc1cccs1)C(C#Cc1cccs1)=Cc1ccc(C=C(C#Cc2cccs2)C#Cc2cccs2)s1
- absorption maximum (in ClC(Cl)Cl): 486 nm

Compound: Cc1ccc(C2=[N+]3C(=Cc4c(C)cc(C)n4[B-]3(F)F)c3ccccc32)[nH]1
- absorption maximum (in C1CCOC1): 607 nm
- absorption maximum (in CC#N): 600 nm
- absorption maximum (in CCCCCC): 607 nm
- absorption maximum (in CO): 602 nm
- absorption maximum (in Cc1ccccc1): 612 nm
- absorption maximum (in ClCCl): 608 nm

Compound: NCCCCCCCCCCCCN1C(=O)c2ccc3c4ccc5c6c(ccc(c7ccc(c2c37)C1=O)c64)C(=O)N(CCCCCCCCCCCCN)C5=O
- absorption maximum (in CN(C)C=O): 523 nm

Compound: C#Cc1ccc2ccc3oc(=O)cc(C)c3c2c1
- absorption maximum (in CCO): 362 nm

Compound: COc1ccc(N(c2ccc(C=C(c3ccccc3)c3ccccc3)cc2)c2ccc(OC)cc2)cc1
- absorption maximum (in Cc1ccccc1): 376 nm

Compound: COc1ccc2c(C=C(C#N)C#N)cc3ccc4cc(C=C(C#N)C#N)c5ccc(OC)cc5c4c3c2c1
- absorption maximum (in ClC(Cl)Cl): 456 nm

Compound: c1cc2c3c4c5c(cccc5cc3c1)-c1cccn1B4n1cccc1-2
- absorption maximum (in C1CCOC1): 505 nm

Compound: CN1C(=CC2=C([O-])C(=Cc3sc4ccccc4[n+]3C)C2=C(C#N)C#N)C(C)(C)c2ccccc21
- absorption maximum (in ClC(Cl)Cl): 691 nm

Compound: CC1(C)c2ccccc2N(c2ccc(-c3ccc(C#N)c(C#N)n3)cc2)c2ccccc21
- absorption maximum (in Cc1ccccc1): 404 nm

Compound: CCCCCCCCCCC1(CCCCCCCCCC)c2cc(N3C(=O)c4ccc5c6ccc7c8c(ccc(c9ccc(c4c59)C3=O)c86)C(=O)N(c3ccc4c(c3)C(CCCCCCCCCC)(CCCCCCCCCC)c3cc(N(c5ccccc5)c5ccccc5)ccc3-4)C7=O)ccc2-c2ccc(N(c3ccccc3)c3ccccc3)cc21
- absorption maximum (in Cc1ccccc1): 528 nm
- absorption maximum (in ClCCl): 527 nm

Compound: Nc1cc(N)cc(-c2nc3ccccc3s2)c1
- absorption maximum (in C1CCCCC1): 360 nm
- absorption maximum (in C1COCCO1): 360 nm
- absorption maximum (in CC#N): 360 nm
- absorption maximum (in CC(C)O): 360 nm
- absorption maximum (in CCOC(C)=O): 360 nm
- absorption maximum (in CCOCC): 360 nm
- absorption maximum (in CO): 360 nm
- absorption maximum (in O): 360 nm

Compound: CCCCCCN1C(=O)c2cccc3c(-c4ccc(Cl)s4)ccc(c23)C1=O
- absorption maximum (in ClC(Cl)Cl): 374 nm

Compound: C(S/C=C/c1ccc(-c2ccc(/C=C/SC=C3CCCCCC3)cc2)cc1)=C1CCCCCC1
- absorption maximum (in ClCCl): 353 nm

Compound: c1ccc2c(c1)c1ccccc1c1ccccc21
- absorption maximum (in ClCCl): 286 nm

Compound: O=Cc1ccc(C2=Cc3ccccc3P2(=O)c2ccccc2)cc1 (stereo not drawn)
- absorption maximum (in ClCCl): 357 nm

Compound: CCC1=C(C)C(=O)n2c1cc1c(CCC(=O)OC)c(C)c(C)n1c2=O
- absorption maximum (in CC#N): 420 nm
- absorption maximum (in CC(C)=O): 420 nm
- absorption maximum (in CO): 426 nm
- absorption maximum (in CS(C)=O): 427 nm
- absorption maximum (in ClC(Cl)Cl): 429 nm
- absorption maximum (in c1ccccc1): 425 nm

Compound: CC1(C)c2ccccc2N2c3ccccc3C3(c4cc(C#N)ccc4-c4ccc(C#N)cc43)c3cccc1c32
- absorption maximum (in Cc1ccccc1): 327.78 nm

Compound: CCC1=C(C)C2=C(/C=C/Sc3ccccc3)c3c(C)c(CC)c(C)n3[B-](F)(F)[N+]2=C1C
- absorption maximum (in ClCCl): 528 nm
